Earlier results as cited in patent US6465436B2, “Method for treating alcohol intoxication and alcohol abuse” (McLean Hospital, priority 2000, dated 2002).

How the values were obtained:
[1] = for alcohol consumption suppressing activity of herbal medicines derived from Pueraria lobata (fractionation studies): U.S. Pat. No. 5,783,189
[2] = in vivo
human ALDH-1 = target: T1, human ALDH-1 (Homo sapiens, UniProt P05091)
T1 sequence (P05091 18-517): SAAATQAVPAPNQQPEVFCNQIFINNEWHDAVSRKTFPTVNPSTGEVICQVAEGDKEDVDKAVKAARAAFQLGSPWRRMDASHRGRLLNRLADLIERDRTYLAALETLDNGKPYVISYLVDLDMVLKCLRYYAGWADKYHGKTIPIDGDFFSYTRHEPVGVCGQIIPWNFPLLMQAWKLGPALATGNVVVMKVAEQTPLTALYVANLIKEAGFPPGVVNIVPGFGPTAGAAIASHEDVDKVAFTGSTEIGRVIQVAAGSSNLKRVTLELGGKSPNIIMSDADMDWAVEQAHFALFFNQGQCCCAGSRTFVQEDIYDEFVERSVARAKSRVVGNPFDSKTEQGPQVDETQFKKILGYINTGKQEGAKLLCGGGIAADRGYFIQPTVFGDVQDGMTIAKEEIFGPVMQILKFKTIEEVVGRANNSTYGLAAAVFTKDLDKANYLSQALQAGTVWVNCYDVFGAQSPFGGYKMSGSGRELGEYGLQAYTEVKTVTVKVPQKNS

Compound | alcohol consumption suppressing activity of herbal medicines derived from Pueraria lobata (fractionation studies) [1] | alcohol intake (Syrian Golden hamsters) | blood alcohol levels [2] | sleep time induced by alcohol [2] | human ALDH-1 inhibition (human ALDH-1) | ALDH inhibition (ALDH) | activity in suppressing alcohol intake relative to daidzin ([1]; in vivo)
COc1cc(-c2coc3c([C@@H]4O[C@H](CO)[C@@H](O)[C@H](O)[C@H]4O)c(O)ccc3c2=O)ccc1O [3′-methoxypuerarin] | primarily responsible for the alcohol consumption suppressing activity |  |  |  |  |  | 
O=c1c(-c2ccc(O)cc2)coc2cc(O)ccc12 [daidzein] | primarily responsible for the alcohol consumption suppressing activity | suppressed alcohol intake | decreases blood alcohol levels | shortens sleep time | potent human ALDH-1 inhibitors |  | 
O=c1c(-c2ccc(O)cc2)coc2cc(O[C@@H]3O[C@H](CO)[C@@H](O)[C@H](O)[C@H]3O)ccc12 [daidzin] | primarily responsible for the alcohol consumption suppressing activity | suppressed alcohol intake |  |  | potent human ALDH-1 inhibitors |  | 
O=c1c(-c2ccc(O)cc2)coc2c([C@@H]3O[C@H](CO[C@@H]4OC[C@](O)(CO)[C@H]4O)[C@@H](O)[C@H](O)[C@H]3O)c(O)ccc12 [mirificin] | primarily responsible for the alcohol consumption suppressing activity |  |  |  |  |  | 
O=c1c(-c2ccc(O)cc2)coc2c([C@@H]3O[C@H](CO)[C@@H](O)[C@H](O)[C@H]3O)c(O)ccc12 [puerarin] | primarily responsible for the alcohol consumption suppressing activity |  |  |  |  | not an ALDH inhibitor | slightly less active than daidzin
